One data set concerns PDE4. In words: Evaluation of PDE4 inhibitory activity, scintillation proximity assay. The class given is biochemical. The following applies: scintillation proximity assay. In outline:
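SPA with [2,8-3H]-cAMP and diluted PDE4 enzyme preparation in 50 mM Tris-HCl pH 7.4, 8.3 mM MgCl2, 1.7 mM EGTA, 3 mg/mL BSA, 120 min at room temperature. Product captured on ZnSO4-containing YSi-SPA beads, scintillation counted; IC50 from inhibition curves vs DMSO control and no-enzyme blank.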
In general terms: In a scintillation proximity assay essentially only radioactivity close to the scintillant gives light.

Data set [1] can be described thus: Hepatic metabolic stability (rat liver microsome method). The class given is in vitro ADME. The following applies: rat liver microsomes 0.5 mg/mL, test substance 1 μM, NADPH 1 mM, 37° C., 30 minutes. Here is the method:
Metabolic stability in rat liver microsomes was evaluated by the following method. First, in 100 mM of potassium phosphate buffer solution (pH 7.4), liver microsomes (concentration at reaction: 0.5 mg/mL) and the test substance (concentration at reaction: 1 μM) were preincubated at 37° C. Five minutes later, 100 mM of potassium phosphate buffer (pH 7.4) solution of NADPH (concentration at reaction: 1 mM) was mixed thereto to start the reaction. After a predetermined time passed, acetonitrile was mixed to the reaction mixture to stop the reaction. Here, the reaction time was 0 and 30 minutes, and drug concentration measurement was performed for each time period using LC-MS. The % remaining value of the test compound was calculated from the value for 0 minutes and the value for 30 minutes, using the calculation formula below: % Remaining=(Value for 30 Minutes/Value for 0 Minutes)×100
The results of measuring the rat liver microsome metabolic Stability (% remaining for 30-minute reaction) for the test compound by the above method were evaluated in accordance with the following evaluated basis; A: a % remaining rate of 75% or more, B: 60% or more and less than 75%, C: 45% or more and less than 60%, and D: less than 45%.

The mark [2] stands for this setting: read-out: PDE4 Inhibitory Activity (Evaluation 1; concentration for the inhibition rate of 50%).

Read-outs that look alike come from different tables or passages of the source. Where only a bound is given, the exact number is not on record here.

Regarding `CC(C)(O)C(F)(F)Oc1ccc(-c2nccs2)c2oc(N3CC4CCC(C3)N4)nc12` [Example 405, 1-((2-(3,8-Diazabicyclo[3.2.1]octan-3-yl)-7-(thiazol-2-yl)benzo[d]oxazol-4-yl)oxy)-1,1-difluoro-2-methylpropan-2-ol], in the data set with PDE4 (setting [2]), the IC50 is less than 100 nM. Further, the “Residual ratio (% remaining for 30-minute reaction)” value in data set [1] is “B (B: 60% or more and less than 75%)”.

In the case of `OCC(O)C(F)(F)Oc1ccc(-c2nccs2)c2oc(N3CC4CC(C3)N4)nc12` (stereo not drawn) [Example 370, 3-((2-(3,6-Diazabicyclo[3.1.1]heptan-3-yl)-7-(thiazol-2-yl)benzo[d]oxazol-4-yl)oxy)-3,3-difluoropropane-1,2-diol], the IC50 with PDE4 (setting [2]) was less than 100 nM. In data set [1], the “Residual ratio (% remaining for 30-minute reaction)” value is “A (A: a % remaining rate of 75% or more)”.

Take `CC(C)(O)C(F)(F)Oc1ccc(-c2ncns2)c2oc(N3CC4CCC(C3)N4)nc12` [Example 327, 1-((2-(3,8-Diazabicyclo[3.2.1]octan-3-yl)-7-(1,2,4-thiadiazol-5-yl)benzo[d]oxazol-4-yl)oxy)-1,1-difluoro-2-methylpropan-2-ol]: the IC50 in the data set with PDE4 (setting [2]) is less than 100 nM. Moreover, in data set [1], the “Residual ratio (% remaining for 30-minute reaction)” value was “B (B: 60% or more and less than 75%)”.

As to `CCNC(=O)c1ccc(-c2nccs2)c2oc(N3CC4CC(C3)N4)nc12` [Example 358, 2-(3,6-Diazabicyclo[3.1.1]heptan-3-yl)-N-ethyl-7-(thiazol-2-yl)benzo[d]oxazole-4-carboxamide], the IC50 with PDE4 (setting [2]) was less than 100 nM. The “Residual ratio (% remaining for 30-minute reaction)” value in data set [1] is “A (A: a % remaining rate of 75% or more)”.

For the compound `Cc1csc(-c2ccc(OC(F)(F)C(C)(C)O)c3nc(N4CC5CC(C4)N5)oc23)n1` [Example 306, 1-((2-(3,6-Diazabicyclo[3.1.1]heptan-3-yl)-7-(4-methylthiazol-2-yl)benzo[d]oxazol-4-yl)oxy)-1,1-difluoro-2-methylpropan-2-ol], the IC50 with PDE4 (setting [2]) lay within 100 to 1000 nM. In addition, the “Residual ratio (% remaining for 30-minute reaction)” value in data set [1] is reported as “A (A: a % remaining rate of 75% or more)”.

For `Cc1csc(-c2ccc(OC(F)(F)C(C)(C)O)c3nc(N4CC5CCC(C4)N5)oc23)n1` [Example 318, 1-((2-(3,8-Diazabicyclo[3.2.1]octan-3-yl)-7-(4-methylthiazol-2-yl)benzo[d]oxazol-4-yl)oxy)-1,1-difluoro-2-methylpropan-2-ol], the IC50 in the data set on PDE4 (setting [2]) is less than 100 nM. Moreover, the “Residual ratio (% remaining for 30-minute reaction)” value in data set [1] was “B (B: 60% or more and less than 75%)”.

In the case of `CC(O)(CO)C(F)(F)Oc1ccc(-c2nccs2)c2oc(N3CC4CC(C3)N4)nc12` (racemic) [Example 326, 3-((2-(3,6-Diazabicyclo[3.1.1]heptan-3-yl)-7-(thiazol-2-yl)benzo[d]oxazol-4-yl)oxy)-3,3-difluoro-2-methylpropane-1,2-diol], the IC50 in the data set on PDE4 (setting [2]) is less than 100 nM. For the same compound, in data set [1], the “Residual ratio (% remaining for 30-minute reaction)” value is recorded as “A (A: a % remaining rate of 75% or more)”.

Take `CS(=O)(=O)c1ccc(Oc2ccc(-c3nccs3)c3oc(N4CC5CC(C4)N5)nc23)nc1` [Example 352, 2-(3,6-Diazabicyclo[3.1.1]heptan-3-yl)-4-((5-(methylsulfonyl)pyridin-2-yl)oxy)-7-(thiazol-2-yl)benzo[d]oxazole]: in the data set with PDE4 (setting [2]), the IC50 was less than 100 nM. Further, in data set [1], the “Residual ratio (% remaining for 30-minute reaction)” value was “A (A: a % remaining rate of 75% or more)”.

Turning to `c1ccc(Oc2ccc(-c3nccs3)c3oc(N4CC5CC(C4)N5)nc23)nc1` [Example 337, 2-(3,6-Diazabicyclo[3.1.1]heptan-3-yl)-4-(pyridin-2-yloxy)-7-(thiazol-2-yl)benzo[d]oxazole], the “Residual ratio (% remaining for 30-minute reaction)” value in data set [1] was “B (B: 60% or more and less than 75%)”.

As to `CC(=O)Nc1cc(-c2nccs2)c2oc(N3CC4CCCC(C3)N4)nc2c1` [Example 48, N-(2-(3,9-diazabicyclo[3.3.1]nonan-3-yl)-7-(thiazol-2-yl)benzo[d]oxazol-5-yl)acetamide], the IC50 in the data set on PDE4 (class symbols of Evaluation 1, read-out: PDE4 Inhibitory Activity (concentration for the inhibition rate of 50%, IC50), Evaluation 1) was less than 100 nM.

Source of the values: US12239643B2, “Therapeutic agent for inflammatory diseases, autoimmune diseases, fibrotic diseases, and cancer diseases” (MEIJI SEIKA PHARMA CO., LTD., priority 2018, dated 2025).
